# Tested on: Kv2.1 channel
# Experiment: whole-cell patch clamp in CHO-Kv2.[…] cells
# Assay type: cell-based
smiles,measurement,value
"CCN(CC)CCOC(=O)C(c1ccccc1)C1CCCCC1 (stereo not shown) [Dfe, drofenine]",IC50,9.53 µM
